According to PubChem BioAssay AID256 (DTP/NCI, 2004):
Several values for one entry are separate records, joined by “and”; a condition that tells them apart may be missing. Identical values can stand only once. Inconclusive results and toxic doses are left out. The calls were made as follows: active = survival T/C of 150% or more; inactive = T/C below 125% in these data.

Test system: CD2F1 mice, L1210 leukemia ip, survival T/C
Test: NCI In Vivo Anticancer Drug Screen. Data for tumor model L1210 Leukemia (intraperitoneal) in CD2F1 (CDF1) mice
Conditions: higher = longer survival
Summary of the method: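 Ratio T/C, where T is the treated-group value and C the vehicle-dosed control value, from mice implanted with a transplantable tumor.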

[1] = endpoint: mean survival time, dose: 100.0 mg/kg/injection, schedule: Q01DX001 (ip), vehicle: saline with Tween-80
[2] = endpoint: mean survival time, dose: 200.0 mg/kg/injection, schedule: Q01DX001 (ip), vehicle: saline with Tween-80
[3] = endpoint: mean survival time, dose: 400.0 mg/kg/injection, schedule: Q01DX001 (ip), vehicle: saline with Tween-80
[4] = endpoint: mean survival time, dose: 100.0 mg/kg/injection, schedule: Q04DX002 (ip), vehicle: saline with Tween-80
[5] = endpoint: mean survival time, dose: 200.0 mg/kg/injection, schedule: Q04DX002 (ip), vehicle: saline with Tween-80
[6] = endpoint: mean survival time, dose: 100.0 mg/kg/injection, schedule: Q01DX009 (ip), vehicle: saline
[7] = endpoint: mean survival time, dose: 100.0 mg/kg/injection, schedule: Q04DX003 (ip), vehicle: saline
[8] = endpoint: mean survival time, dose: 200.0 mg/kg/injection, schedule: Q01DX009 (ip), vehicle: saline
[9] = endpoint: mean survival time, dose: 200.0 mg/kg/injection, schedule: Q04DX003 (ip), vehicle: saline
[10] = endpoint: mean survival time, dose: 400.0 mg/kg/injection, schedule: Q04DX003 (ip), vehicle: saline
[11] = endpoint: mean survival time, dose: 150.0 mg/kg/injection, schedule: Q01DX001 (ip), vehicle: other
[12] = endpoint: mean survival time, dose: 100.0 mg/kg/injection, schedule: Q04DX003 (ip), vehicle: saline with Tween-80
[13] = endpoint: mean survival time, dose: 200.0 mg/kg/injection, schedule: Q04DX003 (ip), vehicle: saline with Tween-80

Measured: T/C

COc1cc2c[n+](C)c3c(c2cc1OC)Cc1cc2c(cc1-3)OCO2
active: endpoint: median survival time, dose: 25.0 mg/kg/injection, schedule: Q01DX009 (ip), vehicle: saline with Tween-80 152 % of control and 162 % of control | endpoint: median survival time, dose: 50.0 mg/kg/injection, schedule: Q01DX009 (ip), vehicle: saline with Tween-80 164 % of control and 168 % of control
inactive: endpoint: median survival time, dose: 6.0 mg/kg/injection, schedule: Q01DX009 (ip), vehicle: saline with Tween-80 122 % of control | endpoint: median survival time, dose: 100.0 mg/kg/injection, schedule: Q01DX009 (ip), vehicle: saline with Tween-80 94 % of control

O=C1/C(=C/c2ccccc2)CCS(=O)(=O)c2ccccc21
inactive: [1] 97 % of control | [2] 97 % of control | [3] 90 % of control

C[n+]1c2ccccc2c(Cl)c2ccccc21
inactive: [1] 104 % of control | [2] 109 % of control

NC(=O)c1cc(NCCN2CCCCC2)c([N+](=O)[O-])cc1[N+](=O)[O-]
inactive: [4] 95 % of control | [5] 95 % of control | endpoint: mean survival time, dose: 400.0 mg/kg/injection, schedule: Q04DX002 (ip), vehicle: saline with Tween-80 95 % of control

COC(=O)c1ccc([N+](=O)[O-])cc1O
inactive: endpoint: mean survival time, dose: 100.0 mg/kg/injection, schedule: Q01DX009 (ip), vehicle: saline with Tween-80 105 % of control | endpoint: mean survival time, dose: 200.0 mg/kg/injection, schedule: Q01DX009 (ip), vehicle: saline with Tween-80 102 % of control | endpoint: mean survival time, dose: 400.0 mg/kg/injection, schedule: Q01DX009 (ip), vehicle: saline with Tween-80 97 % of control

CCOC(=O)CC(=O)N(CC)CC
inactive: [6] 98 % of control | [7] 99 % of control | [8] 93 % of control | [9] 95 % of control | endpoint: mean survival time, dose: 400.0 mg/kg/injection, schedule: Q01DX009 (ip), vehicle: saline 96 % of control | [10] 108 % of control

CCN(CC)CCCNC(C)=O
inactive: [7] 98 % of control | [9] 96 % of control | [10] 101 % of control

O=CC(CO)OC(C=O)n1cnc2c(=O)[nH]c(=O)[nH]c21 (stereo not given)
inactive: endpoint: mean survival time, dose: 12.5 mg/kg/injection, schedule: Q01DX005 (ip), vehicle: water 101 % of control | endpoint: mean survival time, dose: 25.0 mg/kg/injection, schedule: Q01DX005 (ip), vehicle: water 106 % of control | endpoint: mean survival time, dose: 50.0 mg/kg/injection, schedule: Q01DX005 (ip), vehicle: water 106 % of control | endpoint: mean survival time, dose: 100.0 mg/kg/injection, schedule: Q01DX005 (ip), vehicle: water 115 % of control

COc1ccc(SC2=CC(=O)c3ccccc3C2=O)cc1
inactive: endpoint: mean survival time, dose: 75.0 mg/kg/injection, schedule: Q01DX001 (ip), vehicle: other 97 % of control | [11] 95 % of control

S=C(Oc1ccc(Cl)cc1)Sc1ccc(Cl)cc1
inactive: endpoint: mean survival time, dose: 100.0 mg/kg/injection, schedule: Q04DX002 (ip), vehicle: Klucel (hydroxypropylcellulose) (HPC) 101 % of control | endpoint: mean survival time, dose: 200.0 mg/kg/injection, schedule: Q04DX002 (ip), vehicle: Klucel (hydroxypropylcellulose) (HPC) 89 % of control | endpoint: mean survival time, dose: 400.0 mg/kg/injection, schedule: Q04DX002 (ip), vehicle: Klucel (hydroxypropylcellulose) (HPC) 97 % of control

CC1=C(/C=C/C(C)=C/C=C/C(C)=C/CO)C(C)(C)CCC1
inactive: endpoint: mean survival time, dose: 150.0 mg/kg/injection, schedule: Q01DX001 (ip), vehicle: alkali diluted with saline 102 % of control | endpoint: mean survival time, dose: 150.0 mg/kg/injection, schedule: Q01DX001 (ip), vehicle: distilled water + alcohol 112 % of control | [11] 112 % of control | endpoint: mean survival time, dose: 150.0 mg/kg/injection, schedule: Q01DX001 (ip), vehicle: saline 102 % of control | endpoint: mean survival time, dose: 150.0 mg/kg/injection, schedule: Q11HX001 (ip), vehicle: saline 102 % of control | endpoint: mean survival time, dose: 300.0 mg/kg/injection, schedule: Q01DX001 (ip), vehicle: alkali diluted with saline 99 % of control and 100 % of control | endpoint: mean survival time, dose: 300.0 mg/kg/injection, schedule: Q01DX001 (ip), vehicle: distilled water + alcohol 108 % of control | endpoint: mean survival time, dose: 300.0 mg/kg/injection, schedule: Q01DX001 (ip), vehicle: other 108 % of control | endpoint: mean survival time, dose: 300.0 mg/kg/injection, schedule: Q01DX001 (ip), vehicle: saline 103 % of control | endpoint: mean survival time, dose: 300.0 mg/kg/injection, schedule: Q11HX001 (ip), vehicle: saline 103 % of control

COc1c(O)c2c(c3cc(C(=O)N4CCc5c4c(O)c(OC)c4[nH]c(C(=O)N6CC7CC78C6=CC(=O)c6[nH]cc(C)c68)cc54)[nH]c13)CCN2C(N)=O (stereo not given)
inactive: endpoint: mean survival time, dose: 1.0 micrograms/kg/injection, schedule: Q01DX009 (ip), vehicle: other 116 % of control | endpoint: mean survival time, dose: 4.4 micrograms/kg/injection, schedule: Q04DX003 (ip), vehicle: other 106 % of control | endpoint: mean survival time, dose: 6.6 micrograms/kg/injection, schedule: Q04DX003 (ip), vehicle: other 104 % of control | endpoint: mean survival time, dose: 10.0 micrograms/kg/injection, schedule: Q04DX003 (ip), vehicle: other 116 % of control | endpoint: mean survival time, dose: 22.5 micrograms/kg/injection, schedule: Q04DX003 (ip), vehicle: other 122 % of control | endpoint: mean survival time, dose: 30.0 micrograms/kg/injection, schedule: Q01DX009 (ip), vehicle: other 124 % of control | endpoint: mean survival time, dose: 100.0 micrograms/kg/injection, schedule: Q04DX003 (ip), vehicle: other 101 % of control

COc1ccc(COC(=O)Nc2ccc(Cl)cc2)cc1
inactive: endpoint: mean survival time, dose: 50.0 mg/kg/injection, schedule: Q04DX002 (ip), vehicle: saline with Tween-80 104 % of control | [4] 100 % of control | [5] 92 % of control

CS(=O)(=O)c1ccc(NN)c([N+](=O)[O-])c1
inactive: [12] 98 % of control | [13] 98 % of control | endpoint: mean survival time, dose: 400.0 mg/kg/injection, schedule: Q04DX003 (ip), vehicle: saline with Tween-80 102 % of control

CCNC(=O)Nc1nc2ccccc2[nH]1
inactive: endpoint: mean survival time, dose: 50.0 mg/kg/injection, schedule: Q01DX009 (ip), vehicle: saline with Tween-80 101 % of control

CCCCCCCCCCC(=O)CCCCC
inactive: endpoint: mean survival time, dose: 100.0 mg/kg/injection, schedule: Q01DX009 (ip), vehicle: other 101 % of control | endpoint: mean survival time, dose: 100.0 mg/kg/injection, schedule: Q04DX003 (ip), vehicle: other 105 % of control | endpoint: mean survival time, dose: 200.0 mg/kg/injection, schedule: Q01DX009 (ip), vehicle: other 107 % of control | endpoint: mean survival time, dose: 200.0 mg/kg/injection, schedule: Q04DX003 (ip), vehicle: other 100 % of control | endpoint: mean survival time, dose: 400.0 mg/kg/injection, schedule: Q01DX009 (ip), vehicle: other 104 % of control | endpoint: mean survival time, dose: 400.0 mg/kg/injection, schedule: Q04DX003 (ip), vehicle: other 94 % of control

O=S1(=O)CCC(C2CCCCC2)C1 (stereo not given)
inactive: endpoint: mean survival time, dose: 100.0 mg/kg/injection, schedule: Q01DX001 (ip), vehicle: saline 95 % of control | endpoint: mean survival time, dose: 200.0 mg/kg/injection, schedule: Q01DX001 (ip), vehicle: saline 98 % of control | endpoint: mean survival time, dose: 400.0 mg/kg/injection, schedule: Q01DX001 (ip), vehicle: saline 106 % of control

O=P(Oc1ccccc1)(Oc1ccccc1)N(CCCl)CCCl
active: endpoint: mean survival time, dose: 100.0 mg/kg/injection, schedule: Q01DX009 (ip), vehicle: water 161 % of control
inactive: endpoint: mean survival time, dose: 12.5 mg/kg/injection, schedule: Q01DX009 (ip), vehicle: water 101 % of control | endpoint: mean survival time, dose: 25.0 mg/kg/injection, schedule: Q01DX009 (ip), vehicle: water 100 % of control and 108 % of control | endpoint: mean survival time, dose: 31.25 mg/kg/injection, schedule: Q01DX001 (ip), vehicle: distilled water + Tween-80 104 % of control | endpoint: mean survival time, dose: 50.0 mg/kg/injection, schedule: Q01DX009 (ip), vehicle: water 104 % of control | endpoint: mean survival time, dose: 62.5 mg/kg/injection, schedule: Q01DX001 (ip), vehicle: distilled water + Tween-80 107 % of control | endpoint: mean survival time, dose: 125.0 mg/kg/injection, schedule: Q01DX001 (ip), vehicle: distilled water + Tween-80 102 % of control | endpoint: mean survival time, dose: 250.0 mg/kg/injection, schedule: Q01DX001 (ip), vehicle: distilled water + Tween-80 119 % of control

CCCCC(CC)CNC1=C(Cl)C(=O)c2ccccc2C1=O (stereo not given)
inactive: endpoint: mean survival time, dose: 25.0 mg/kg/injection, schedule: Q04DX003 (ip), vehicle: saline with Tween-80 98 % of control | endpoint: mean survival time, dose: 50.0 mg/kg/injection, schedule: Q04DX003 (ip), vehicle: saline with Tween-80 106 % of control | [12] 95 % of control

C/C=C/CNc1ccccc1
inactive: endpoint: mean survival time, dose: 50.0 mg/kg/injection, schedule: Q01DX009 (ip), vehicle: saline 102 % of control | [6] 101 % of control | [12] 95 % of control | [8] 96 % of control | [13] 97 % of control

CCCCNC1=CC(=O)c2ccccc2C1=O
inactive: [1] 103 % of control | [2] 95 % of control | [3] 92 % of control
